19 compounds from ChEMBL document CHEMBL3868610, “Novel bicyclo[3.1.0]hexane analogs as antagonists of metabotropic glutamate 2/3 receptors for the treatment of depression” (Bioorg Med Chem Lett, 2016) can be followed below.

Structures are written as SMILES. Activity calls are given as the source filed them. The calls are words filed in the database; no cut-off is given here.

For assay [1], the target named is T1, Metabotropic glutamate receptor 2 (Homo sapiens, UniProt Q14416). Briefly: Displacement of [3H]-LY459477 from human mGlu2 receptor expressed in hamster AV12 cell membranes co-expressing human EAAT1 after 90 mins by liquid scintillation counting method.
Target sequence in this assay (Q14416 whole entry): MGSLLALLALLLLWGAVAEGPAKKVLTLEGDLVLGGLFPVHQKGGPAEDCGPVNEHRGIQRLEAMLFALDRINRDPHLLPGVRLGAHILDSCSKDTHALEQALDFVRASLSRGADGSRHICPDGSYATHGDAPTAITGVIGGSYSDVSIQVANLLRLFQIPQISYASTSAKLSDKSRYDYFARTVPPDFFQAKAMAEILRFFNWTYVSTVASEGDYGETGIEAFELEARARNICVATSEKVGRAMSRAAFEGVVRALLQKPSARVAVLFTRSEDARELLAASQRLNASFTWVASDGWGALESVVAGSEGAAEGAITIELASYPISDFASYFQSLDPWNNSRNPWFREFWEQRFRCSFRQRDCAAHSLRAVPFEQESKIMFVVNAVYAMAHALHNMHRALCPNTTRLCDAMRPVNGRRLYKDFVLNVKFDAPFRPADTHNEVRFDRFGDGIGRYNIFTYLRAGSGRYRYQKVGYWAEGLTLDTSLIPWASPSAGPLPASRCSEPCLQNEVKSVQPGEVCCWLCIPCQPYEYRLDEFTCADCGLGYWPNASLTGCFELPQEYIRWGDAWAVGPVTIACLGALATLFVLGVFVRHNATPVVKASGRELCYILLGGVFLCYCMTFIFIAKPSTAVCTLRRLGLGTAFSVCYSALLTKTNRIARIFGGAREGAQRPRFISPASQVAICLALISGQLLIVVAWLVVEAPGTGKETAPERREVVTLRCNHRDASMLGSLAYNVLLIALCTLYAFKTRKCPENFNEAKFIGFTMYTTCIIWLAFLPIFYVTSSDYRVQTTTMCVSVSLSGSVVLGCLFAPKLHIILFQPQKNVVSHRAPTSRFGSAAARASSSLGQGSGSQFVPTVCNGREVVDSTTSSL
Assay [2] deals with T2, Metabotropic glutamate receptor 3 (Homo sapiens, UniProt Q14832). Briefly: Antagonist activity at recombinant human mGlu3 receptor expressed in hamster AV12 cells co-expressing human EAAT1 assessed as reduction of DCG-4-inhibited forskolin-stimulated cAMP formation after 20 mins by HTRF assay. Format: functional, cell-based.
The target in assay [3] is T1, Metabotropic glutamate receptor 2. Briefly: Antagonist activity at recombinant human mGlu2 receptor expressed in hamster AV12 cells co-expressing human EAAT1 assessed as reduction of DCG-4-inhibited forskolin-stimulated cAMP formation after 20 mins by HTRF assay. Format: functional, cell-based.
For assay [4] the target is unchanged. Briefly: Antagonist activity at recombinant human mGlu2 receptor expressed in hamster AV12 cells assessed as inhibition of DCG-4-inhibited forskolin-stimulated cAMP formation up to 25 uM after 20 min by HTRF assay relative to control. Format: functional, cell-based.
Target sequence in this assay (Q14416 19-872 limits assumed): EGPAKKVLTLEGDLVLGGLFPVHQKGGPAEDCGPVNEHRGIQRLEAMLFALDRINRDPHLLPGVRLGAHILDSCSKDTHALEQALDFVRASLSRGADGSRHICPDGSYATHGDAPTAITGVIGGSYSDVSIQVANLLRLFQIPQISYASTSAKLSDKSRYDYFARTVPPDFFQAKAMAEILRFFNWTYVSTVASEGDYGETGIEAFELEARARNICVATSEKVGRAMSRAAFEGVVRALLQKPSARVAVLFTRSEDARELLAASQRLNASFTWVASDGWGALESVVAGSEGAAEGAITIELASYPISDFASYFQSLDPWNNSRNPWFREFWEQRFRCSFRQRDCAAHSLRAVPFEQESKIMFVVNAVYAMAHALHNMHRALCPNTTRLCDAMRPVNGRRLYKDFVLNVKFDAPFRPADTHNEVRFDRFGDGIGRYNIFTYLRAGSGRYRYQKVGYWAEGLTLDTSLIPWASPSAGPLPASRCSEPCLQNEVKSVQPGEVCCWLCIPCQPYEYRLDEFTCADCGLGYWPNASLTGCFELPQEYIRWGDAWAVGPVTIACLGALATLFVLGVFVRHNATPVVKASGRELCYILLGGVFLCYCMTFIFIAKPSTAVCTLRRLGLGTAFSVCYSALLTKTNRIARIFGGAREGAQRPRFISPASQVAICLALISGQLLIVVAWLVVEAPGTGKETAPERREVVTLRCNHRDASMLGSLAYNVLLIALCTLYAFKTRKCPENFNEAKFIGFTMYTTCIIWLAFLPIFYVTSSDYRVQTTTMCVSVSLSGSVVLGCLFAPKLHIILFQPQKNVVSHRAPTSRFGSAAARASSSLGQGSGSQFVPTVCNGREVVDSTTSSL
Assay [5] concerns the target T2, Metabotropic glutamate receptor 3. In words: Antagonist activity at recombinant human mGlu3 receptor expressed in hamster AV12 cells assessed as inhibition of DCG-4-inhibited forskolin-stimulated cAMP formation up to 25 uM after 20 mins by HTRF assay relative to control. Type of assay: functional, cell-based.
Target sequence in this assay (Q14832 23-879 limits assumed): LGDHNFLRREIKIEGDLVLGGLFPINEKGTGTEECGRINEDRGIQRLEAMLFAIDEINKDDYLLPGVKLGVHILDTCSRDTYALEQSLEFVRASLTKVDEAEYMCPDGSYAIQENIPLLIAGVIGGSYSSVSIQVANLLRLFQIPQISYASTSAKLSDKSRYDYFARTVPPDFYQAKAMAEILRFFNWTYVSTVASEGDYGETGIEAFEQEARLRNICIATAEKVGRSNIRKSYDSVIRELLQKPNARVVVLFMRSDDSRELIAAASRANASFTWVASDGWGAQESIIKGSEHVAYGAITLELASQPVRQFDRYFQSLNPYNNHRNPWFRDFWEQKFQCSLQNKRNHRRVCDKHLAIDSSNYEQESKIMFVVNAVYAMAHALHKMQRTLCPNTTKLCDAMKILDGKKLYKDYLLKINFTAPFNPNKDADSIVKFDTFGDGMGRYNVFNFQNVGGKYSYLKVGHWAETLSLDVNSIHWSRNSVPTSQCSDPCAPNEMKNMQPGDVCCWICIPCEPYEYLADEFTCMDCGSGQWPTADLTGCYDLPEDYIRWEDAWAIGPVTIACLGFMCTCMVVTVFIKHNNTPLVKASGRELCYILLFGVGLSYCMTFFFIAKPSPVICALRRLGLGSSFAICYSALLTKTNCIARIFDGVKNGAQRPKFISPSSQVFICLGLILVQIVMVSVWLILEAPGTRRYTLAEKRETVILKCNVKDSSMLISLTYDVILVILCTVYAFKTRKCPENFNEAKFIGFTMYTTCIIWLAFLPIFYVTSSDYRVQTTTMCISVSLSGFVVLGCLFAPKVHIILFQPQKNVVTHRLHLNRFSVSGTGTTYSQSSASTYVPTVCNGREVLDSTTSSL
The nature of assay [6]: Antidepressant activity in ip dosed NIH Swiss Webster mouse assessed as reduction in immobility time administered 30 mins prior to evaluation measured on the last 4 mins of the 6 mins observation time by forced swim test. Format: functional, organism-based.
Assay [7] is described as follows: Antidepressant activity in ip dosed NIH Swiss Webster mouse assessed as reduction in immobility time administered 30 mins prior to evaluation measured on the last 4 mins of the 6 mins observation time by forced swim test realtive to control. Format: functional, organism-based.
Assay [8] addresses T2, Metabotropic glutamate receptor 3. In words: Displacement of [3H]-LY459477 from human mGlu3 receptor expressed in hamster AV12 cell membranes co-expressing human EAAT1 after 90 mins by liquid scintillation counting method.
Target sequence in this assay (Q14832 whole entry): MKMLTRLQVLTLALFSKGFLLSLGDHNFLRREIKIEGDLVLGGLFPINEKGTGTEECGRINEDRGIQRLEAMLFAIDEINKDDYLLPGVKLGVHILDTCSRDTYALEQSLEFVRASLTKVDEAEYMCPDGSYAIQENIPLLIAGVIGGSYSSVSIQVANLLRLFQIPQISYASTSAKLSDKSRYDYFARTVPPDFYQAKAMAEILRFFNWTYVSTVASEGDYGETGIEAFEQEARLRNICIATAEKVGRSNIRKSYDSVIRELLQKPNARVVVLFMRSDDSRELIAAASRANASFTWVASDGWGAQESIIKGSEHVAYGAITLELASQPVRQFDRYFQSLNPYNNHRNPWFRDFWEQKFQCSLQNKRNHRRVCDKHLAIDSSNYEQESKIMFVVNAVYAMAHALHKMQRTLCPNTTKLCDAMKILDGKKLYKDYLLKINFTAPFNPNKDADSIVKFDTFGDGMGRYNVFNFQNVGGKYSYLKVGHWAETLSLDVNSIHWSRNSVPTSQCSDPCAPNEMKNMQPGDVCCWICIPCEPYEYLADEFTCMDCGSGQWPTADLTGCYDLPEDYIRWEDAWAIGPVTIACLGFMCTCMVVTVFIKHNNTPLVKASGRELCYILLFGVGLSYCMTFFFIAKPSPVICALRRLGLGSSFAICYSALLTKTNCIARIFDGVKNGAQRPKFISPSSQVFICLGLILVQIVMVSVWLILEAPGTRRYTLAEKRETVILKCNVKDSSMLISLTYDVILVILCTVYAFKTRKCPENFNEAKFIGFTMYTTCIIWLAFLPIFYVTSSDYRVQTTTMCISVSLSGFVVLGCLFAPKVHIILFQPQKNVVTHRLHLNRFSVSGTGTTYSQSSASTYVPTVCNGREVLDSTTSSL

`N[C@]1(C(=O)O)[C@@H]2[C@@H](C(=O)O)[C@@H]2[C@@H](O)[C@H]1OCc1ccc(Cl)c(Cl)c1` gave a Ki in assay [1] of 0.076 µM. The values for the IC50 in assay [2] and in assay [3] were 0.153 µM and 0.169 µM, respectively. Further, the Imax in assay [2] and in assay [3] was above 94% throughout. Besides, the inhibition entry in assay [4] and in assay [5] was “Active” each time.

Turning to `N[C@]1(C(=O)O)[C@@H]2[C@@H](C(=O)O)[C@@H]2[C@H](Sc2ncc[nH]2)[C@H]1OCc1ccc(Cl)c(Cl)c1`, in assay [2], the concentration for half-maximal inhibition (IC50) turned out to be 0.0385 µM and the Imax was above 94%. Moreover, the inhibition entry in assay [5] was “Active”. Moreover, in assay [6], the ED60 is 9.1 mg/kg and the MED is 10 mg/kg. The Emax in assay [7] stood at 41%.

For `N[C@]1(C(=O)O)[C@@H]2[C@@H](C(=O)O)[C@@H]2[C@@H](O)[C@H]1OCc1cccc(Cl)c1`, the 50% inhibitory concentration (IC50) turned out to be 0.178 µM in assay [2] and 0.28 µM in assay [3]. In addition, the Imax in assay [2] and in assay [3] was above 94% throughout. The inhibition result in assay [4] and in assay [5] was “Active” each time.

As to `N[C@]1(C(=O)O)[C@@H]2[C@@H](C(=O)O)[C@@H]2[C@@H](O)[C@H]1OCc1ccccc1`, in assay [2], the IC50 was 0.239 µM and the Imax is above 94%. For the same compound, the inhibition result in assay [5] is “Active”.

Turning to `CC(=O)N[C@H]1[C@H]2[C@H](C(=O)O)[C@H]2[C@](N)(C(=O)O)[C@@H]1OCc1ccc(Cl)c(Cl)c1`, the figures for the IC50 in assay [2] and in assay [3] were 0.0143 µM and 0.0261 µM, respectively. The Imax in assay [2] and in assay [3] was above 94% each time. Also, the inhibition entry in assay [4] and in assay [5] was “Active” in each case. Moreover, the ED60 in assay [6] amounted to 9.1 mg/kg. In addition, the MED in assay [6] was 30 mg/kg. The maximal response (Emax) in assay [7] is 41%.

As for `N[C@]1(C(=O)O)[C@@H]2[C@@H](C(=O)O)[C@@H]2[C@@H](O)[C@H]1OCc1cccc(Cl)c1Cl`, in assay [2], the IC50 is 0.0832 µM and the Imax is above 94%. Further, in assay [5], the inhibition result is “Active”.

Take `Cn1ncnc1S[C@H]1[C@H]2[C@H](C(=O)O)[C@H]2[C@](N)(C(=O)O)[C@@H]1OCc1ccc(Cl)c(Cl)c1`: the IC50 in assay [2] was 0.0296 µM; in assay [3], 0.0199 µM. Also, the Imax in assay [2] and in assay [3] was above 94% in each case. Also, the inhibition result in assay [4] and in assay [5] was “Active” throughout. In addition, the ED60 in assay [6] turned out to be 7.3 mg/kg. The MED in assay [6] amounted to 10 mg/kg. Also, in assay [7], the Emax is 47%.

Consider `Cc1cc(CO[C@@H]2[C@H](O)[C@H]3[C@H](C(=O)O)[C@H]3[C@]2(N)C(=O)O)ccc1F`, for which, in assay [2], the IC50 was found to be 0.085 µM and the Imax was above 94%. In assay [5], the inhibition entry was “Active”.

Consider `N[C@H]1[C@H]2[C@H](C(=O)O)[C@H]2[C@](N)(C(=O)O)[C@@H]1OCc1ccc(Cl)c(Cl)c1`, for which the half-inhibitory concentration (IC50) in assay [2] turned out to be 1.07 µM; in assay [3], 1.13 µM. The Imax in assay [2] and in assay [3] was above 94% throughout. Also, the inhibition entry in assay [4] and in assay [5] was “Active” throughout.

Regarding `N[C@@]1(C(=O)O)C[C@H](O)[C@H]2[C@H](C(=O)O)[C@H]21`, the inhibition constant Ki in assay [1] stood at 0.23 µM. This counts as sub-micromolar.

`N[C@]1(C(=O)O)[C@@H]2[C@@H](C(=O)O)[C@@H]2[C@@H](O)[C@H]1OCc1cc(Cl)ccc1Cl`: in assay [2], the concentration for half-maximal inhibition (IC50) is 0.185 µM and the Imax is above 94%. In assay [5], the inhibition entry is “Active”.

Turning to `N[C@@]1(C(=O)O)[C@H](Cc2ccc(F)c(Cl)c2)C[C@H]2[C@H](C(=O)O)[C@H]21` (racemic), the 50% inhibitory concentration (IC50) in assay [2] worked out at 0.0761 µM.

Regarding `N[C@]1(C(=O)O)[C@@H]2[C@@H](C(=O)O)[C@@H]2[C@H](Sc2nc[nH]n2)[C@H]1OCc1ccc(Cl)c(Cl)c1`, the values for the Ki in assay [1] and in assay [8] were 0.00743 µM and 0.0027 µM, respectively. Besides, the IC50 in assay [2] was found to be 0.0235 µM; in assay [3], 0.0127 µM. Also, the Imax in assay [2] and in assay [3] was above 94% in each case. In addition, the inhibition result in assay [4] and in assay [5] was “Active” in each case. The ED60 in assay [6] was determined as 2.08 mg/kg. Also, the MED in assay [6] was determined as 3 mg/kg. Also, the Emax in assay [7] stood at 62%.

With `N[C@@]1(C(=O)O)C[C@@H](O)[C@H]2[C@H](C(=O)O)[C@H]21`, the affinity in assay [1], expressed as Ki, was 0.166 µM.

Turning to `[N-]=[N+]=N[C@H]1[C@H]2[C@H](C(=O)O)[C@H]2[C@](N)(C(=O)O)[C@@H]1OCc1ccc(Cl)c(Cl)c1`, the results for the half-maximal inhibitory concentration (IC50) in assay [2] and in assay [3] were 0.0541 µM and 0.0345 µM, respectively. The Imax in assay [2] and in assay [3] was above 94% throughout. Also, the inhibition entry in assay [4] and in assay [5] was “Active” in each case.

`N[C@]1(C(=O)O)[C@@H]2[C@@H](C(=O)O)[C@@H]2[C@@H](O)[C@H]1OCc1ccc(Cl)cc1`: the IC50 in assay [2] stood at 0.145 µM; in assay [3], 0.21 µM. Further, the Imax in assay [2] and in assay [3] was above 94% in each case. In addition, the inhibition result in assay [4] and in assay [5] was “Active” throughout.

Take `N[C@]1(C(=O)O)[C@@H]2[C@@H](C(=O)O)[C@@H]2[C@@H](O)[C@H]1OCc1ccc(Cl)c(F)c1`: in assay [2], the half-inhibitory concentration (IC50) was 0.127 µM and the Imax is above 94%. Besides, the inhibition result in assay [5] is “Active”.

For the compound `COC(=O)N[C@H]1[C@H]2[C@H](C(=O)O)[C@H]2[C@](N)(C(=O)O)[C@@H]1OCc1ccc(Cl)c(Cl)c1`, in assay [2], the half-maximal inhibitory concentration (IC50) stood at 0.0205 µM and the Imax was above 94%. Further, in assay [3], the half-maximal inhibitory concentration (IC50) amounted to 0.0188 µM and the Imax was above 94%. In addition, the inhibition entry in assay [4] is “Active”. In addition, the inhibition entry in assay [5] is “Active”. In addition, in assay [6], the ED60 was 7.95 mg/kg and the MED amounted to 10 mg/kg. In addition, the Emax in assay [7] stood at 46%.

As to `N[C@]1(C(=O)O)[C@@H]2[C@@H](C(=O)O)[C@@H]2[C@H](F)[C@H]1OCc1ccc(Cl)c(Cl)c1`, in assay [2], the IC50 was 0.071 µM and the Imax is above 94%. Besides, in assay [5], the inhibition entry was “Active”.
